Test results as given in patent publication US20230406840A1, “N-(2-(3-CYANO-2-AZABICYCLO[3.1.0]HEXAN-2-YL)-2-OXOETHYL)QUINOLINE-4-CARBOXAMIDES” (AstraZeneca AB, priority 2022, published 2023).
≈ marks a conversion by molar mass, not a printed value. Read-outs that look alike come from different tables or passages of the source.

Legend:
[1] = target: human Fibroblast activation protein alpha (hFAP) (Homo sapiens (Human), UniProt Q12884); experiment: hFAP inhibition assay (tight binders); assay type: biochemical; settings: tight-binder format, Ala-Pro-AMC 20 μM, 2.5 h incubation; n = 1 or geometric mean (n = 5-10)
Sequence of human Fibroblast activation protein alpha (hFAP) (Q12884 38-760): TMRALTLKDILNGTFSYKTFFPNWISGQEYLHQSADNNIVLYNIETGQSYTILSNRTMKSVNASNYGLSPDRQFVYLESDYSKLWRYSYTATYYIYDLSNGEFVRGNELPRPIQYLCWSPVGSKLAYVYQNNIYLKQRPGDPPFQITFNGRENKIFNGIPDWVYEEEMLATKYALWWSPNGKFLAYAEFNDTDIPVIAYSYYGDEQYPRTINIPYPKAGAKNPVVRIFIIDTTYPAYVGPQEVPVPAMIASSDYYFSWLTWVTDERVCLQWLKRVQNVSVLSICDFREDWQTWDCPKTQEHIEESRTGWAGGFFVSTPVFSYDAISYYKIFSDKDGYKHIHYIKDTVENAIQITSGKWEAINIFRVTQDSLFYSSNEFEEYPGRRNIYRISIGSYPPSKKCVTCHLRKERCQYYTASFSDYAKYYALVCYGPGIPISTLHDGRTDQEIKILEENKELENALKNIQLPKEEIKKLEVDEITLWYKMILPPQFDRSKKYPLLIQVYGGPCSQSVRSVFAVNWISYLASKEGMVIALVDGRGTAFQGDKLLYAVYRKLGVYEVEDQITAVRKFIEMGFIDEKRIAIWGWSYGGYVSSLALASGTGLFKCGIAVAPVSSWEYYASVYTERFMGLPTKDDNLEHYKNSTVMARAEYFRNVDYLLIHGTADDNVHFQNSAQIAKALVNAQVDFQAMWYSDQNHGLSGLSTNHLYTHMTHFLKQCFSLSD
Protocol: Data were analyzed in Genedata Screener®.

[2] = target: Prolyl Oligopeptidase (hPREP) (Homo sapiens (Human), UniProt P48147); experiment: hPREP inhibition assay; assay type: biochemical; settings: hPREP 0.6 nM, Z-Gly-Pro-amino-methylcoumarin 50 μM; read-out: PREP IC50
Sequence of Prolyl Oligopeptidase (hPREP) (P48147 whole entry): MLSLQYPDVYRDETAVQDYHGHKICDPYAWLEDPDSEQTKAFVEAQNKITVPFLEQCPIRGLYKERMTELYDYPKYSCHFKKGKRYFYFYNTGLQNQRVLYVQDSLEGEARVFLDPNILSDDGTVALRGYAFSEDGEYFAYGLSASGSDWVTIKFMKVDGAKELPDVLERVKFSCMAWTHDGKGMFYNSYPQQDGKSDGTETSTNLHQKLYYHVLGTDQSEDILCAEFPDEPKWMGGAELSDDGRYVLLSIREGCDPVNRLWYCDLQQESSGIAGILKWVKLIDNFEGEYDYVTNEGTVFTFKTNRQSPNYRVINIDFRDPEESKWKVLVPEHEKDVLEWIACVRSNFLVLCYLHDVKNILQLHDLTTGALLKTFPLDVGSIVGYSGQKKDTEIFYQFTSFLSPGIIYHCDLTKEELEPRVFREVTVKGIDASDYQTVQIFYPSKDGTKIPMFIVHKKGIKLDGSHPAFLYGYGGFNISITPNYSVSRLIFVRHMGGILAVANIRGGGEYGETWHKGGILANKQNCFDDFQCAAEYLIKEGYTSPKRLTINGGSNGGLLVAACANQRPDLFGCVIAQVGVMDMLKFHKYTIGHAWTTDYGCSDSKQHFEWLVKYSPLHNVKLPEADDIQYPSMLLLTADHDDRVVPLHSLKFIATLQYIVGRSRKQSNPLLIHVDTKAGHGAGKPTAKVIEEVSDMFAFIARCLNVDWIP
Protocol: Compounds were tested in a biochemical inhibition assay using Prolyl endopeptidase, Prolyl Oligopeptidase (hPREP) enzyme at 0.6 nM FAC (R&D Systems, 4308-SE) and the substrate Z-Gly-Pro-amino-methylcoumarin (Bachem, I-1145) at 50 μM FAC. 384 Low volume black plates (Greiner #784076) were used. […] 4 μL, 100 μM substrate solution (25 mM Tris HCl, 250 mM NaCl, 0.01% Triton X-100, 5 mM Glutathione, pH 7.5) was added to each well. Plates were centrifuged at 1000 rpm and incubated for 20 min at rt in dark. […] Data were analyzed in Genedata Screener®.

[3] = Metabolic stability in human liver microsomes (HLM); assay type: in vitro ADME
Protocol: Metabolic stability in HLM was measured as described in J Comput Aided Mol Des 2015, 29, 795.

Rat Hepatocytes (rHep) = experiment: Metabolic stability in rat hepatocytes (rHep); assay type: in vitro ADME
Protocol: Metabolic stability in rat hepatocytes was measured as described in J Comput Aided Mol Des 2015, 29, 795.

Human Hepatocytes (hHep) = experiment: Metabolic stability in human hepatocytes (hHep); assay type: in vitro ADME
Protocol: Metabolic stability in human hepatocytes was measured as described in Xenobiotica 2010, 40, 637.

Kinetic solubility = assay type: physicochemical
Protocol: Kinetic solubility was measured as described in Comput Aided Mol Des 2015, 29, 795.

hFAP = hFAP (Homo sapiens (Human), UniProt Q12884);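 also: fluorescence read after incubating enzyme with substrate at room temperature, IC50 fitted from percent inhibition against log concentration with a one-site model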
Sequence of hFAP (Q12884 38-760): as the sequence (Q12884 38-760) above

IC50 [1] [µM] | IC50 [2] [µM] | microsomal CLint [3] [µL/min/mg] | rHeps CLint (Rat Hepatocytes (rHep)) [μL/min/1E6] | hHep CLint (Human Hepatocytes (hHep)) [μL/min/1E6] | solubility (Kinetic solubility; kinetic from dmso stock) [µM] | IC50 (hFAP) [µM] | solubility (Kinetic solubility) [µM] | SMILES
0.032 | 22 | < 3 | 1.2 | <1 | > 1000 | 0.064 | – | Cc1cc(C(=O)NCC(=O)N2[C@H](C#N)C[C@@H]3C[C@@H]32)c2cc(F)ccc2n1 [Example 4, N-(2-((1S,3S,5S)-3-Cyano-2-azabicyclo[3.1.0]hexan-2-yl)-2-oxoethyl)-6-fluoro-2-methylquinoline-4-carboxamide]
0.018 | 18 | 11 | 2.8 | – | 140 (≈ 51.6 µg/mL) | 0.065 | – | Cc1cc(C(=O)NCC(=O)N2[C@H](C#N)C[C@@H]3C[C@@H]32)c2cc(Cl)ccc2n1 [Example 5, 6-Chloro-N-(2-((1S,3S,5S)-3-cyano-2-azabicyclo[3.1.0]hexan-2-yl)-2-oxoethyl)-2-methylquinoline-4-carboxamide]
0.018 | 13 | 23 | 5.8 | – | 61 (≈ 25.2 µg/mL) | 0.058 | – | Cc1cc(C(=O)NCC(=O)N2[C@H](C#N)C[C@@H]3C[C@@H]32)c2cc(Br)ccc2n1 [Example 6, 6-Bromo-N-(2-((1S,3S,5S)-3-cyano-2-azabicyclo[3.1.0]hexan-2-yl)-2-oxoethyl)-2-methylquinoline-4-carboxamide]
0.015 | 18 | 43 | 12 | – | 23 (≈ 10.6 µg/mL) | 0.053 | – | Cc1cc(C(=O)NCC(=O)N2[C@H](C#N)C[C@@H]3C[C@@H]32)c2cc(I)ccc2n1 [Example 7, N-(2-((1S,3S,5S)-3-Cyano-2-azabicyclo[3.1.0]hexan-2-yl)-2-oxoethyl)-6-iodo-2-methylquinoline-4-carboxamide]
0.00091 | > 50 | < 3 | <1 | – | > 1000 | 0.0026 | – | CC(O)c1ccc2nccc(C(=O)NCC(=O)N3[C@H](C#N)C[C@@H]4C[C@@H]43)c2c1 (stereo partly drawn) [Example 14, N-(2-((1S,3S,5S)-3-Cyano-2-azabicyclo[3.1.0]hexan-2-yl)-2-oxoethyl)-6-(1-hydroxyethyl)quinoline-4-carboxamide]
0.025 | > 50 | 120 | 18 | – | 800 (≈ 290 µg/mL) | 0.08 | – | CCc1ccc2nc(C)cc(C(=O)NCC(=O)N3[C@H](C#N)C[C@@H]4C[C@@H]43)c2c1 [Example 18, N-(2-((1S,3S,5S)-3-Cyano-2-azabicyclo[3.1.0]hexan-2-yl)-2-oxoethyl)-6-ethyl-2-methylquinoline-4-carboxamide]
0.033 | 43 | 12 | <1 | – | > 1000 | 0.08 | – | Cc1ccc2nc(C)cc(C(=O)NCC(=O)N3[C@H](C#N)C[C@@H]4C[C@@H]43)c2c1 [Example 19, N-(2-((1S,3S,5S)-3-Cyano-2-azabicyclo[3.1.0]hexan-2-yl)-2-oxoethyl)-2,6-dimethylquinoline-4-carboxamide]
0.00037 | > 50 | < 3 | <1 | – | 960 (≈ 350 µg/mL) | < 0.0018 | – | CC(O)c1ccc2c(C(=O)NCC(=O)N3[C@H](C#N)C[C@@H]4C[C@@H]43)ccnc2c1 (stereo partly drawn) [Example 25, N-(2-((1S,3S,5S)-3-Cyano-2-azabicyclo[3.1.0]hexan-2-yl)-2-oxoethyl)-7-(1-hydroxyethyl)quinoline-4-carboxamide]
0.0007 | > 50 | < 3 | <1 | – | > 1000 | 0.0021 | – | CC(C)(O)c1ccc2c(C(=O)NCC(=O)N3[C@H](C#N)C[C@@H]4C[C@@H]43)ccnc2c1 [Example 26, N-(2-((1S,3S,5S)-3-Cyano-2-azabicyclo[3.1.0]hexan-2-yl)-2-oxoethyl)-7-(2-hydroxypropan-2-yl)quinoline-4-carboxamide]
0.00041 | > 50 | 42 | 16 | – | 200 (≈ 86.5 µg/mL) | 0.0031 | – | CC(OC(F)(F)F)c1ccc2c(C(=O)NCC(=O)N3[C@H](C#N)C[C@@H]4C[C@@H]43)ccnc2c1 (stereo partly drawn) [Example 30, N-(2-((1S,3S,5S)-3-Cyano-2-azabicyclo[3.1.0]hexan-2-yl)-2-oxoethyl)-7-(1-(trifluoromethoxy)ethyl)quinoline-4-carboxamide]
– | > 50 | 46 | 72 | – | 37 (≈ 13.9 µg/mL) | 0.002 | – | CC1(c2ccc3c(C(=O)NCC(=O)N4[C@H](C#N)C[C@@H]5C[C@@H]54)ccnc3c2)CC1 [Example 32, N-(2-((1S,3S,5S)-3-Cyano-2-azabicyclo[3.1.0]hexan-2-yl)-2-oxoethyl)-7-(1-methylcyclopropyl)quinoline-4-carboxamide]
– | – | 170 | 9.8 | 25 | 700 (≈ 293 µg/mL) | 0.0014 | – | N#C[C@@H]1C[C@@H]2C[C@@H]2N1C(=O)CNC(=O)c1ccnc2ccc(OCC(F)(F)F)cc12 [Example 33, N-(2-((1S,3S,5S)-3-Cyano-2-azabicyclo[3.1.0]hexan-2-yl)-2-oxoethyl)-6-(2,2,2-trifluoroethoxy)quinoline-4-carboxamide]
– | > 50 | 190 | 55 | – | 430 (≈ 195 µg/mL) | 0.0013 | – | N#C[C@@H]1C[C@@H]2C[C@@H]2N1C(=O)CNC(=O)c1ccnc2ccc(OC3CCC(F)(F)CC3)cc12 [Example 38, N-(2-((1S,3S,5S)-3-Cyano-2-azabicyclo[3.1.0]hexan-2-yl)-2-oxoethyl)-6-((4,4-difluorocyclohexyl)oxy)quinoline-4-carboxamide]
0.00041 | > 50 | 77 | 13 | – | 960 (≈ 388 µg/mL) | 0.0015 | – | CCOC1(c2ccc3c(C(=O)NCC(=O)N4[C@H](C#N)C[C@@H]5C[C@@H]54)ccnc3c2)CC1 [Example 39, N-(2-((1S,3S,5S)-3-Cyano-2-azabicyclo[3.1.0]hexan-2-yl)-2-oxoethyl)-7-(1-ethoxycyclopropyl)quinoline-4-carboxamide]
– | – | – | – | – | – | 0.0056 | – | N#C[C@@H]1C[C@@H]2C[C@@H]2N1C(=O)CNC(=O)c1ccnc2ccc(C3CC3)cc12 [Example 42, N-(2-((1S,3S,5S)-3-Cyano-2-azabicyclo[3.1.0]hexan-2-yl)-2-oxoethyl)-6-cyclopropylquinoline-4-carboxamide]
– | – | – | – | – | – | – | 590 (≈ 213 µg/mL) | N#C[C@@H]1C[C@@H]2C[C@@H]2N1C(=O)CNC(=O)c1ccnc2cc(C3CC3)ccc12 [Example 47, N-(2-((1S,3S,5S)-3-Cyano-2-azabicyclo[3.1.0]hexan-2-yl)-2-oxoethyl)-7-cyclopropylquinoline-4-carboxamide]
– | 0.0071 | – | – | – | – | – | – | N#C[C@@H]1CSCN1C(=O)CNC(=O)c1ccnc2ccccc12 [Reference Compound C, (R)-N-(2-(4-cyanothiazolidin-3-yl)-2-oxoethyl)-quinoline-4-carboxamide, reference compound]
